Results published in patent US8030498B2, “Benzoylpyrazole compounds and herbicides containing them” (Ishihara Sangyo Kaisha, Ltd., priority 2005, dated 2011).

Columns and labels:
[1] = tested on: barnyardgrass (Echinochloa crus-galli L.); experiment: Test Example 1: foliar treatment, growth inhibition rate, barnyardgrass; assay type: in vivo; settings: 31 g/ha active ingredient, visually observed 17th to 23rd day after application
Method in brief: (§1)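 Potted upland soil; compounds as wettable powders or emulsifiable concentrates diluted in water at 500 L/ha plus 0.1 vol % spreader, foliar-sprayed at defined leaf stages (rice 1.0–2.5, wheat 1.7–3.4, corn 2.0–3.5, greenfoxtail 1.0–3.0). Growth inhibition (0–100%) scored visually 17–23 days after application.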

[2] = tested on: crabgrass (Digitaria sanguinalis L.); experiment: Test Example 1: foliar treatment, growth inhibition rate, crabgrass; assay type: in vivo; settings: 31 g/ha active ingredient, visually observed 17th to 23rd day after application
Method in brief: (§2)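 Visual scoring of growth inhibition, 0% (untreated) to 100% (complete kill), on days 17–23 following post-emergence spray of formulated compound in water (500 L/ha, 0.1 vol % spreader); plants treated at set leaf stages, e.g. corn 2.0–3.5, wheat 1.7–3.4.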

[3] = tested on: greenfoxtail (Setaria viridis L.); experiment: Test Example 1: foliar treatment, growth inhibition rate, greenfoxtail; assay type: in vivo; settings: 31 g/ha active ingredient, visually observed 17th to 23rd day after application
Method in brief: (§3)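 Plants grown in upland soil in pots were sprayed on the foliage at set leaf stages (corn 2.0–3.5, greenfoxtail 1.0–3.0, rice 1.0–2.5, wheat 1.7–3.4 leaves) with wettable powder or emulsifiable concentrate formulations diluted in water at 500 L/ha plus 0.1 vol % spreader. Growth inhibition was scored visually 17–23 days later.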

[4] = tested on: redroot pigweed (Amaranthus retroflexus L.); experiment: Test Example 1: foliar treatment, growth inhibition rate, redroot pigweed; assay type: in vivo; settings: 31 g/ha active ingredient, visually observed 17th to 23rd day after application
Method in brief: as §2

[5] = tested on: prickly sida (Sida spinosa L.); experiment: Test Example 1: foliar treatment, growth inhibition rate, prickly sida; assay type: in vivo; settings: 31 g/ha active ingredient, visually observed 17th to 23rd day after application
Method in brief: as §2

[6] = tested on: velvetleaf (Abutilon theophrasti MEDIC.); experiment: Test Example 1: foliar treatment, growth inhibition rate, velvetleaf; assay type: in vivo; settings: 31 g/ha active ingredient, visually observed 17th to 23rd day after application
Method in brief: as §1

[7] = tested on: rice (Oryza sativa L.); experiment: Test Example 1: foliar treatment, growth inhibition rate, rice; assay type: in vivo; settings: 31 g/ha active ingredient, visually observed 17th to 23rd day after application
Method in brief: as §3

[8] = tested on: wheat (Triticum spp.); experiment: Test Example 1: foliar treatment, growth inhibition rate, wheat; assay type: in vivo; settings: 31 g/ha active ingredient, visually observed 17th to 23rd day after application
Method in brief: as §3

[9] = tested on: corn (Zea mays L.); experiment: Test Example 1: foliar treatment, growth inhibition rate, corn; assay type: in vivo; settings: 31 g/ha active ingredient, visually observed 17th to 23rd day after application
Method in brief: as §3

[10] = tested on: soybean (Glycine max Merr.); experiment: Test Example 1: foliar treatment, growth inhibition rate, soybean; assay type: in vivo; settings: 31 g/ha active ingredient, visually observed 17th to 23rd day after application
Method in brief: as §2

[11] = tested on: barnyardgrass; experiment: Test Example 2: soil application on the day after sowing, growth inhibition rate, barnyardgrass; assay type: in vivo, Echinochloa crus-galli L.; settings: 250 g/ha active ingredient, observed on 19th to 24th day
Method in brief: (§4)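 Seeds were sown in upland field soil in pots, and on the following day compounds formulated as wettable powders or emulsifiable concentrates were diluted in water (500 liter per hectare) and sprayed onto the soil at prescribed active-ingredient doses. Growth was scored visually 19–24 days later, 0 = untreated to 100% = complete kill.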

[12] = tested on: crabgrass; experiment: Test Example 2: soil application on the day after sowing, growth inhibition rate, crabgrass; assay type: in vivo, Digitaria sanguinalis L.; settings: 250 g/ha active ingredient, observed on 19th to 24th day
Method in brief: as §4

[13] = tested on: greenfoxtail; experiment: Test Example 2: soil application on the day after sowing, growth inhibition rate, greenfoxtail; assay type: in vivo, Setaria viridis L.; settings: 250 g/ha active ingredient, observed on 19th to 24th day
Method in brief: as §4

[14] = tested on: redroot pigweed; experiment: Test Example 2: soil application on the day after sowing, growth inhibition rate, redroot pigweed; assay type: in vivo, Amaranthus retroflexus L.; settings: 250 g/ha active ingredient, observed on 19th to 24th day
Method in brief: as §4

[15] = tested on: prickly sida; experiment: Test Example 2: soil application on the day after sowing, growth inhibition rate, prickly sida; assay type: in vivo, Sida spinosa L.; settings: 250 g/ha active ingredient, observed on 19th to 24th day
Method in brief: as §4

[16] = tested on: velvetleaf; experiment: Test Example 2: soil application on the day after sowing, growth inhibition rate, velvetleaf; assay type: in vivo, Abutilon theophrasti MEDIC.; settings: 250 g/ha active ingredient, observed on 19th to 24th day
Method in brief: as §4

[17] = tested on: rice; experiment: Test Example 2: soil application on the day after sowing, growth inhibition rate, rice; assay type: in vivo, Oryza sativa L.; settings: 250 g/ha active ingredient, observed on 19th to 24th day
Method in brief: as §4

[18] = tested on: wheat; experiment: Test Example 2: soil application on the day after sowing, growth inhibition rate, wheat; assay type: in vivo, Triticum spp.; settings: 250 g/ha active ingredient, observed on 19th to 24th day
Method in brief: as §4

[19] = tested on: corn; experiment: Test Example 2: soil application on the day after sowing, growth inhibition rate, corn; assay type: in vivo, Zea mays L.; settings: 250 g/ha active ingredient, observed on 19th to 24th day
Method in brief: as §4

[20] = tested on: soybean; experiment: Test Example 2: soil application on the day after sowing, growth inhibition rate, soybean; assay type: in vivo, Glycine max Merr.; settings: 250 g/ha active ingredient, observed on 19th to 24th day
Method in brief: as §4

Structure (SMILES)	Growth inhibition rate (%) Barnyardgrass [1] [%]	Growth inhibition rate (%) Crabgrass [2] [%]	Growth inhibition rate (%) Greenfoxtail [3] [%]	Growth inhibition rate (%) redroot pigweed [4] [%]	Growth inhibition rate (%) Prickly sida [5] [%]	Growth inhibition rate (%) Velvetleaf [6] [%]	Growth inhibition rate (%) Rice [7] [%]	Growth inhibition rate (%) Wheat [8] [%]	Growth inhibition rate (%) Corn [9] [%]	Growth inhibition rate (%) Soybean [10] [%]	Growth inhibition rate (%) Barnyardgrass [11] [%]	Growth inhibition rate (%) Crabgrass [12] [%]	Growth inhibition rate (%) Greenfoxtail [13] [%]	Growth inhibition rate (%) redroot pigweed [14] [%]	Growth inhibition rate (%) Prickly sida [15] [%]	Growth inhibition rate (%) Velvetleaf [16] [%]	Growth inhibition rate (%) Rice [17] [%]	Growth inhibition rate (%) Wheat [18] [%]	Growth inhibition rate (%) Corn [19] [%]	Growth inhibition rate (%) Soybean [20] [%]
CCn1ncc(C(=O)c2ccc(S(C)(=O)=O)c(C(=O)OC)c2C)c1OC(=O)SCc1ccccc1 [compound 93]	95	80	95	98	70	80	70	0	30	80	95	90	100	100	75	65	90	0	0	0
CCSC(=O)Oc1c(C(=O)c2ccc(S(C)(=O)=O)c(C(=O)OC)c2Cl)cnn1CC [compound 95]	100	90	100	100	80	90	90	20	10	95	100	95	100	100	95	80	98	0	0	0
CCn1ncc(C(=O)c2ccc(S(C)(=O)=O)c(C(=O)OC)c2Cl)c1OC(=O)SC [compound 97]	100	70	100	100	50	80	60	10	0	80	100	100	100	100	100	100	70	0	0	10
C=CCSC(=O)Oc1c(C(=O)c2ccc(S(C)(=O)=O)c(C(=O)OC)c2C)cnn1CC [compound 99]	98	100	100	98	100	98	95	60	50	98	100	100	100	95	100	100	100	0	0	40
COCCOc1c(S(C)(=O)=O)ccc(C(=O)c2cnn(C)c2OC(=O)SC(C)C)c1C [compound 207]	95	95	100	100	60	100	70	0	0	100	100	100	100	100	60	100	98	0	0	20
CCn1ncc(C(=O)c2ccc(S(C)(=O)=O)c(OCCOC)c2C)c1OC(=O)SC(C)C [compound 208]	95	100	100	100	40	95	80	0	0	100	100	100	100	100	30	50	98	0	0	0
CCSC(=O)Oc1c(C(=O)c2ccc(S(C)(=O)=O)c(CN(C)CC#N)c2C)cnn1C [compound 210]	80	30	50	10	70	60	50	0	0	50	0	10	0	20	40	0	0	0	0	0
CCSC(=O)Oc1c(C(=O)c2ccc(S(C)(=O)=O)c(OCC3CCCO3)c2C)cnn1C (stereo not shown) [compound 211]	70	70	70	90	20	90	50	0	20	98	60	98	60	100	70	40	50	0	0	0
